Read-outs that look alike come from different tables or passages of the source.
How the values were obtained:
[1] = Terpene loading into yeast particles, absence of free terpene after centrifugation; format: physicochemical; conditions: for Vol. loaded: 500 μl of 250 mg/ml; for % Loaded w/w: terpene to particle weight; for terpene emulsion absorbed and encapsulated per 10 mg of YP: Baker's YP 20 mg/ml; for terpene emulsion absorbed and encapsulated per 125 mg of YP: Baker's YP 250 mg/ml
Procedure: (§1) Samples were centrifuged at 14,000×g for 10 minutes and the appearance of free terpene floating on the aqueous layer was scored.
The expression “free terpene” refers to the visible presence of terpene in the centrifuged reaction mixture. The absence of free terpene indicates complete absorption of the terpene by the particles. The highest volume of terpene absorbed by the particles, as evidenced by the absence of free terpene, was recorded as the maximal volume of absorbed terpene emulsion.
as §1
The expression “free terpene” refers to the visible presence of terpene in the centrifuged reaction mixture. The absence of free terpene indicates complete absorption of the terpene by the YP. The highest volume of terpene absorbed by the YP, as evidenced by the absence of free terpene, was recorded as the maximal volume of absorbed terpene emulsion.
Increasing volumes of terpene emulsion were mixed with 250 mg/ml Baker's YP or 250 mg/ml SAF Mannan™ overnight at room temperature as shown in Tables 7 and 8. Samples were centrifuged at 14,000×g for 10 minutes and the appearance of free terpene floating on the aqueous layer was scored. The highest volume of terpene emulsion absorbed by Baker's YP or SAF Mannan™ as evidenced by the absence of free terpene was recorded as the volume of absorbed terpene emulsion. Colour of encapsulated terpenes in the pellet was recorded.
Percentage loaded represents a ratio of the amount of terpene loaded to the amount of particle present (weight for weight).

S. aureus = experiment: MIC of terpene emulsions and fresh or freeze-dried Baker's YP / SAF Mannan encapsulated terpenes; format: cell-based; conditions: for MIC, Bakers Freeze Dried / MIC, Bakers Fresh: encapsulated in Baker's YP; for MIC, SAF Mannan Freeze Dried / MIC, SAF Mannan Fresh: encapsulated in SAF Mannan; for MIC, Emulsion: terpene emulsion
Procedure: The results of a protocol performed to compare the MIC of fresh versus freeze dried hollow glucan particle encapsulated terpene formulations are shown below in Table 13. A simple terpene emulsion was also tested and the results are shown for comparison.

H. pylori = conditions: in vitro; cited from earlier work
[2] = format: physicochemical
Procedure: The reactions were incubated for 1, 3, 6, 9 and 24 hours at room temperature or 37° C. After incubation samples were centrifuged at 14,000×g for 10 minutes and the appearance of free terpene floating on the aqueous layer was scored. The highest volume of terpene absorbed by the particles as evidenced by the absence of free terpene was recorded as the volume of absorbed terpene emulsion. Colour of the encapsulated pellet was scored at 24 hours.

E. coli = conditions: cited from earlier work
[3] = Citral solution and stable suspension; format: physicochemical
Text: In one embodiment the terpene component includes one or more terpenes which contain oxygen.

## C=CCc1ccc(O)c(OC)c1 [Eugenol]
[1]; maximal loading in Baker's YP
  Vol. loaded: 75 µL
  % Loaded w/w: 67% w/w
[1]; maximal loading in SAF Mannan
  Vol. loaded: 112.5 µL
  % Loaded w/w: 100% w/w
S. aureus
  MIC, Bakers Freeze Dried: 0.05 μg/ml terpene
  MIC, Bakers Fresh: 0.03 μg/ml terpene
  MIC, SAF Mannan Freeze Dried: 0.05 μg/ml terpene
  MIC, SAF Mannan Fresh: 0.01 μg/ml terpene
  MIC, Emulsion: 0.12 μg/ml terpene

## CC(C)=CCC/C(C)=C/CO [Geraniol]
[1]; maximal loading in Baker's YP
  Vol. loaded: 75 µL
  % Loaded w/w: 67% w/w
[1]; maximal loading in SAF Mannan
  Vol. loaded: 150 µL
  % Loaded w/w: 133% w/w
H. pylori
  concentration that inhibited the growth of H. pylori: 2 mg/L
S. aureus
  MIC, Bakers Freeze Dried: 0.06 μg/ml terpene
  MIC, Bakers Fresh: 0.03 μg/ml terpene
  MIC, SAF Mannan Freeze Dried: >0.03 μg/ml terpene
  MIC, SAF Mannan Fresh: 0.02 μg/ml terpene
  MIC, Emulsion: 0.47 μg/ml terpene

## CC(C)=CCCC(C)=CC=O [Citral, 3,7-dimethyl-2,6-octadien-1-al]
[1]
  terpene emulsion absorbed and encapsulated per 10 mg of YP: at least 5 μl
  terpene emulsion absorbed and encapsulated per 125 mg of YP: at least 75 μl
[1]; maximal loading in Baker's YP
  Vol. loaded: 75 µL
  % Loaded w/w: 67% w/w
[1]; maximal loading in SAF Mannan
  Vol. loaded: 150 µL
  % Loaded w/w: 133% w/w
[2]; in Baker's YP
  protection of citral from oxidation: not by the Baker's YP
[2]; in SAF Mannan
  protection of citral from oxidation: protected from oxidation
E. coli
  concentration in growth media that reduced the concentration of E. coli: more than 0.01%
  concentration with bactericidal effect: 0.08%
[3]
  concentration up to which a solution can be made: up to 500 ppm
  concentration up to which a stable suspension can be formed: up to 2500 ppm
S. aureus
  MIC, Bakers Freeze Dried: 0.05 μg/ml terpene
  MIC, Bakers Fresh: 0.01 μg/ml terpene
  MIC, SAF Mannan Freeze Dried: >0.03 μg/ml terpene
  MIC, SAF Mannan Fresh: 0.01 μg/ml terpene
  MIC, Emulsion: 0.94 μg/ml terpene

## L-carvone
[1]
  terpene emulsion absorbed and encapsulated per 10 mg of YP: at least 16.5 μl
  terpene emulsion absorbed and encapsulated per 125 mg of YP: at least 112.5 μl
[1]; maximal loading in Baker's YP
  Vol. loaded: 37.5 µL
  % Loaded w/w: 33.3 % w/w
[1]; maximal loading in SAF Mannan
  Vol. loaded: 112.5 µL
  % Loaded w/w: 100% w/w
S. aureus
  MIC, Bakers Freeze Dried: >0.04 μg/ml terpene
  MIC, Bakers Fresh: 0.1 μg/ml terpene
  MIC, SAF Mannan Freeze Dried: >0.02 μg/ml terpene
  MIC, SAF Mannan Fresh: 0.01 μg/ml terpene
  MIC, Emulsion: 3.75 μg/ml terpene
